Experimental findings from patent US6204293A, “Inhibitors of protein isoprenyl transferases” (University of Pittsburgh, priority 1998, dated 2001) are described below.

Counter-ions that a name gives are not always drawn.

In the first assay the target is T1, Rat brain protein farnesyltransferase (Rattus norvegicus, UniProt Q02293+Q04631).
T1 construct: Rat brain protein farnesyltransferase activity is measured; from tissue; host or cells: rat brain
T1 sequence (Q02293 whole entry, one chain of several): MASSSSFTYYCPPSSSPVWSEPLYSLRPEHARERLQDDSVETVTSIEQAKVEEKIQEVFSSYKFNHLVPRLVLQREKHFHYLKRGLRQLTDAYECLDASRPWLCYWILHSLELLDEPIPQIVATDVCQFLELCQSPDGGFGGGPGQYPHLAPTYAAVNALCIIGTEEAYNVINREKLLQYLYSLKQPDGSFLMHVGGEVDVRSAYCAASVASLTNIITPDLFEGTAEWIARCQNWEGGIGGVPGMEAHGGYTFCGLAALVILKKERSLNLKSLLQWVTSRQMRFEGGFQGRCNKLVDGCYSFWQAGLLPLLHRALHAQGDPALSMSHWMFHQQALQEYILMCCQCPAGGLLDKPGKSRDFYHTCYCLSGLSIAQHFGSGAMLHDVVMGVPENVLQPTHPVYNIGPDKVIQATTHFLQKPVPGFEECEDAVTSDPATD
The assay can be described thus: % inhibition of farnesylation, scintillation proximity assay with biotin-K Ras B fragment. It counts as biochemical. The following applies: Table 3; 1 × 10^-7 M. In short, it runs like this: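 Rat brain enzyme, purified through three steps, in a scintillation proximity assay kit with biotin-K Ras B fragment substrate at 0.1 mM final. Value is % inhibition of farnesylation.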
(In a scintillation proximity assay essentially only radioactivity close to the scintillant gives light.)
As usually defined, the % inhibition is the relative decrease from the control value, in per cent. As to “N-[4-(2-adamantan-1-ylpropoxy)-2-(2-methylphenyl)benzoyl]methionine, lithium salt [Example 563]”, the “% inhibition at 1 × 10^-7 M” value is reported as 95%.

The same assay, now with this note: Table 6; * footnote 0.1 μM (title: 0.1 mM).
For `CCCCC(OCc1ccc(C(=O)N[C@@H](CCSC)C(=O)[O-])c(-c2ccccc2C)c1)C1CCNCC1.[Li+]` (stereo partly shown) [Example 1288], the “% inhibition at 0.1 μM (*)” value worked out at 69%.

Still in this assay, the particulars now being: Table 6; ** footnote 0.01 μM (title: 0.01 mM).
Turning to `CCSCC(CC1CCCCC1)NCc1cc(-c2ccccc2C)c(C(=O)N[C@@H](CCSC)C(=O)O)cc1OC` (stereo partly shown) [Example 1337], the “% inhibition at 0.01 μM (**)” value is given as 83%.

The assay is the same for the next values; noted with them: read-out: % inhibition at 0.01 μM (**).
One may read the inhibition as the change of the read-out against control, counted positive when it falls. Turning to `CSCC[C@H](NC(=O)c1ccc(COCc2ccnnc2)cc1-c1ccccc1C)C(=O)O` [Example 1221, N-[4-(Pyridazin-4-ylmethoxymethyl)-2-(2-methylphenyl)benzoyl]methionine lithium salt], the inhibition at 0.01 µM came out at 82%. The same measure, in the same setting: as for `CSCC[C@H](NC(=O)c1ccc(COC(CCC2CCCCC2)c2ccns2)cc1-c1ccccc1C)C(=O)O` (stereo partly shown) [Example 1223, N-[4-(1-(Isothiaz-5-yl)-3-cyclohexylpropan-1-yloxymethyl)-2-(2-methylphenyl)benzoyl]methionine lithium salt], the figure is 91%; as for `CSCC[C@H](NC(=O)c1ccc(CO[C@H](COC(C)C)CC2CCCCC2)cc1-c1ccccc1C)C(=O)O` [Example 1306, N-[4-[(S)-3-Cyclohexyl-1-(1-methylethoxy)prop-2-yloxymethyl]-2-(2-methylphenyl)benzoyl]methionine Lithium Salt], 85%; as for `CCCCOCC(CC1CCCCC1)OCc1ccc(C(=O)N[C@@H](CCSC)C(=O)O)c(-c2ccccc2C)c1` (stereo partly shown) [Example 1308, N-[4-(3-Cyclohexyl-1-butoxyprop-2-yloxymethyl)-2-(2-methylphenyl)benzoyl]methionine Lithium Salt], 91%. In the case of `CSCC[C@H](NC(=O)c1ccc(COC(CCC2CCCCC2)c2ccnnc2)cc1-c1ccccc1C)C(=O)O` (stereo partly shown) [Example 1349, N-[4-(1-(Pyridazin-4-yl)-3-cyclohexylpropan-1-yloxymethyl)-2-(2-methylphenyl)benzoyl]methionine lithium salt], the inhibition at 0.01 µM amounted to 92%.

Still in this assay, the particulars now being: read-out: % inhibition at 0.01 μM (**); Table 6; ** footnote 0.01 μM (title: 0.01 mM).
Regarding `CSCC[C@H](NC(=O)c1ccc(COC(CCC2CCCCC2)c2cnnn2C)cc1-c1ccccc1C)C(=O)O` (stereo partly shown) [Example 1225, N-[4-(1-(1-Methyl-1,2,3-triaz-5-yl)-3-cyclohexylpropan-1-yloxymethyl)-2-(2-methylphenyl)benzoyl]methionine lithium salt], the inhibition at 0.01 µM was determined as 92%.

For `CSCC[C@H](NC(=O)c1ccc(COCc2cc(F)cc(F)c2)cc1-c1ccccc1C)C(=O)O` [Example 1226, N-[4-(3,5-trifluorobenzyloxymethyl)-2-(2-methylphenyl)benzoyl]methionine lithium salt], the inhibition at 0.01 µM came to 69%. As for `CCCC[C@H](CC1CCCCC1)OCc1ccc(C(=O)N[C@@H](CCSC)C(=O)O)c(-c2ccccc2C)c1` [Example 1303, N-[4-(1-Cyclohexyl-2-hexyloxymethyl)-2-(2-methylphenyl)benzoyl]methionine Lithium Salt], the inhibition at 0.01 µM came out at 91%. Same read-out and setting: next, `COC[C@H](CC1CCCCC1)OCc1ccc(C(=O)N[C@@H](CCSC)C(=O)O)c(-c2ccccc2C)c1` [Example 1304, N-[4-(3-Cyclohexyl-1-methoxyprop-2-yloxymethyl)-2-(2-methylphenyl)benzoyl]methionine Lithium Salt]: 90%; `CCCOC[C@H](CC1CCCCC1)OCc1ccc(C(=O)N[C@@H](CCSC)C(=O)O)c(-c2ccccc2C)c1` [Example 1305, N-[4-(3-Cyclohexyl-1-propoxyprop-2-yloxymethyl)-2-(2-methylphenyl)benzoyl]methionine Lithium Salt]: 91%; `CSCC[C@H](NC(=O)c1ccc(CO[C@H](COC(C)(C)C)CC2CCCCC2)cc1-c1ccccc1C)C(=O)O` [Example 1307]: 85%.

For `CC[S+]([O-])C[C@H](CC1CCCCC1)OCc1ccc(C(=O)N[C@@H](CCSC)C(=O)O)c(-c2ccccc2C)c1` (stereo partly shown) [Example 1310, Lithium Salt], the inhibition at 0.01 µM amounted to 90%. On to `CCS(=O)(=O)C[C@H](CC1CCCCC1)OCc1ccc(C(=O)N[C@@H](CCSC)C(=O)O)c(-c2ccccc2C)c1` [Example 1311, N-[4-(3-Cyclohexyl-1-ethylsulfonylprop-2-yloxymethyl)-2-(2-methylphenyl)benzoyl]methionine Lithium Salt], for which the inhibition at 0.01 µM is 95%. The same measure, in the same setting: next, `CCCCSC[C@H](CC1CCCCC1)OCc1ccc(C(=O)N[C@@H](CCSC)C(=O)O)c(-c2ccccc2C)c1` [Example 1312, N-[4-(1-Butylthio-3-cyclohexylprop-2-yloxymethyl)-2-(2-methylphenyl)benzoyl]methionine Lithium Salt]: 91%; `CSCC[C@H](NC(=O)c1ccc(CO[C@H](COC2CCC2)CC2CCCCC2)cc1-c1ccccc1C)C(=O)O` [Example 1345]: 94%. The same measure, in the same setting: next, `CSCC[C@H](NC(=O)c1ccc(CO[C@H](COCC(O)CO)CC2CCCCC2)cc1-c1ccccc1C)C(=O)O` (stereo partly shown) [Example 1347, N-[4-(3-Cyclohexyl-1-(2,3-dihydroxy-1-propoxy)-prop-2-yloxymethyl)-2-(2-methylphenyl)benzoyl]methionine, Lithium Salt]: 81%; `CSCC[C@H](NC(=O)c1ccc(CO[C@@H](CC2CCCCC2)C(=O)N2CCS(=O)(=O)CC2)cc1-c1ccccc1C)C(=O)O` [Example 1348, N-[4-(3-cyclohexyl-N-thiomorpholin-S,S-dioxide-4-ylpropion-2-yloxymethyl)-2-(2-methylphenyl)benzoyl]methionine, Lithium Salt]: 78%.

The same assay, now with this note: read-out: % inhibition at 0.1 μM (*); Table 6; * footnote 0.1 μM (title: 0.1 mM).
With `CSCC[C@H](NC(=O)c1ccc(COC(CCC2CCCCC2)c2ncnn2C)cc1-c1ccccc1C)C(=O)O` (stereo partly shown) [Example 1224, N-[4-(1-(1-Methyl-1,2,4-triaz-5-yl)-3-cyclohexylpropan-1-yloxymethyl)-2-(2-methylphenyl)benzoyl]methionine lithium salt], the inhibition at 0.1 µM was 88%. The same measure, in the same setting: as for `CSCC[C@H](NC(=O)c1ccc(COC(c2ccccc2)C2CCN(S(=O)(=O)c3ccccc3)CC2)cc1-c1ccccc1C)C(=O)O` (stereo partly shown) [Example 1252, N-[4-(1-(4-(N-phenylsulfonyl)piperidinyl)benzyloxymethyl-2-(2-methylphenyl)benzoyl]methioninelithium salt], the figure is 84%.

`CSCC[C@H](NC(=O)c1ccc(COC(Cc2ccccc2)C2CCN(S(=O)(=O)c3ccccc3)CC2)cc1-c1ccccc1C)C(=O)O` (stereo partly shown) [Example 1253, N-[4-(2-phenyl-1-(4-(N-phenylsulfonyl)piperidinyl)ethyloxymethyl-2-(2-methylphenyl)benzoyl]methioninelithium salt]: the inhibition at 0.1 µM worked out at 76%. Take `CSCC[C@H](NC(=O)c1ccc(COCCc2cccc(F)c2)cc1-c1ccccc1C)C(=O)O` [Example 1274, N-[4-(2-(3-fluorophenyl)ethyloxymethyl-2-(2-methylphenyl)benzoyl]methioninelithium salt]: the inhibition at 0.1 µM was 89%.

As for `CCCCC(OCc1ccc(C(=O)N[C@@H](CCSC)C(=O)O)c(-c2ccccc2C)c1)C1CCOCC1` (stereo partly shown) [Example 1282, N-[4-(1-(4-tetrahydropyranyl)pentyloxymethyl-2-(2-methylphenyl)benzoyl]methioninelithium salt], the inhibition at 0.1 µM was 69%. `CSCC[C@H](NC(=O)c1ccc(COC(c2ccccc2)C2CCOCC2)cc1-c1ccccc1C)C(=O)O` (stereo partly shown) [Example 1283, N-[4-(1-(4-tetrahydropyranyl)benzyloxymethyl-2-(2-methylphenyl)benzoyl]methioninelithium salt]: the inhibition at 0.1 µM was 74%. On the same count and under the same terms, as for `CSCC[C@H](NC(=O)c1ccc(CO[C@H](COCCC(C)(C)C)CC2CCCCC2)cc1-c1ccccc1C)C(=O)O` [Example 1309, N-[4-(3-Cyclohexyl-1-(3,3-dimethylbut-1-yloxy)prop-2-yloxymethyl)-2-(2-methylphenyl)benzoyl]methionine Lithium Salt], the figure is 96%.

On to `CSCC[C@H](NC(=O)c1ccc(COC[C@@H](O)CC2CCCCC2)cc1-c1ccccc1C)C(=O)O` [Example 1314, N-[4-(3-Cyclohexyl-2-hydroxyprop-1-yloxymethyl)-2-(2-methylphenyl)benzoyl]methionine Lithium Salt], for which the inhibition at 0.1 µM turned out to be 96%.

In the case of `CCCC[C@@H](COCc1ccc(C(=O)N[C@@H](CCSC)C(=O)O)c(-c2ccccc2C)c1)CC1CCCCC1` [Example 1315, N-[4-(2-Cyclohexylmethylhex-1-yloxymethyl)-2-(2-methylphenyl)benzoyl]methionine Lithium Salt], the inhibition at 0.1 µM was determined as 86%. Regarding `COc1ccc(CO[C@H](COCc2ccc(C(=O)N[C@@H](CCSC)C(=O)O)c(-c3ccccc3C)c2)CC2CCCCC2)cc1` [Example 1316, N-[4-(3-Cyclohexyl-2-(4-methoxybenzyloxy)prop-1-yloxymethyl)-2-(2-methylphenyl)benzoyl]methionine Lithium Salt], the inhibition at 0.1 µM came out at 78%. On the same count and under the same terms, next, `CSCC[C@H](NC(=O)c1ccc(CO[C@H](COCC2COC(C)(C)O2)CC2CCCCC2)cc1-c1ccccc1C)C(=O)O` (stereo partly shown) [Example 1346, N-[4-(3-Cyclohexyl-1-(2,2-dimethyl-1,3-dioxolan-4-methanoxy)prop-2-yloxymethyl)-2-(2-methylphenyl)benzoyl]methionine, Lithium Salt]: 94%.
